# In ChEMBL document CHEMBL1201862, “PubChem BioAssay data set” (2004):
#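 Interpolation was linear, between the two tested concentrations surrounding the appropriate level; five concentrations were tested over 48 hours in 96-well plates. Here, GI50 denotes the concentration required for 50% inhibition of growth.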 Calls of active or inactive are those of the source. No stated cut-off is given here; in the data, active = GI50 up to about 1.1 µM and inactive = higher.
# How the values were obtained:
# Test in all cases: NCI anticancer screen, dose series, 48 h
# [1] = system: 786-0
# [2] = system: A498
# [3] = system: A549
# [4] = system: ACHN
# [5] = system: CAKI-1
# [6] = system: COLO 205
# [7] = system: DU-145
# [8] = system: EKVX
# [9] = system: HCC 2998
# [10] = system: HCT-116
# [11] = system: HCT-15
# [12] = system: HOP-62
# [13] = system: HOP-92
# [14] = system: HT-29
# [15] = system: Hs-578T
# [16] = system: IGROV-1
# [17] = system: KM12
# [18] = system: LOX IMVI
# [19] = system: M14
# [20] = system: MCF7
# [21] = system: MDA-MB-231
# [22] = system: MDA-MB-435
# [23] = system: MOLT-4
# [24] = system: Malme-3M
# [25] = system: NCI-H226
# [26] = system: NCI-H23
# [27] = system: NCI-H460
# [28] = system: NCI-H522
# [29] = system: NCI/ADR-RES
# [30] = system: OVCAR-3
# [31] = system: OVCAR-4
# [32] = system: OVCAR-5
# [33] = system: OVCAR-8
# [34] = system: PC-3
# [35] = system: RPMI-8226
# [36] = system: RXF 393
# [37] = system: SF-268
# [38] = system: SF-295
# [39] = system: SF-539
# [40] = system: SK-MEL-28
# [41] = system: SK-MEL-2
# [42] = system: SK-MEL-5
# [43] = system: SK-OV-3
# [44] = system: SN12C
# [45] = system: SNB-19
# [46] = system: SNB-75
# [47] = system: SW-620
# [48] = system: T47D
# [49] = system: TK-10
# [50] = system: U-251
# [51] = system: UACC-257
# [52] = system: UACC-62
# [53] = system: UO-31
# [54] = system: HL-60
# [55] = system: K562
# [56] = system: SR
# [57] = system: CCRF-CEM
smiles,measurement,setting,value
CC(C)=NOC(=O)Nc1cccc2c1OCO2,GI50,[1],> 100 µM (inactive)
same,GI50,[2],> 100 µM (inactive)
same,GI50,[3],> 100 µM (inactive)
same,GI50,[4],80.9 µM (inactive)
same,GI50,[5],> 100 µM (inactive)
same,GI50,[6],> 100 µM (inactive)
same,GI50,[7],> 100 µM (inactive)
same,GI50,[8],> 100 µM (inactive)
same,GI50,[9],> 100 µM (inactive)
same,GI50,[10],> 100 µM (inactive)
same,GI50,[11],> 100 µM
same,GI50,[12],> 100 µM (inactive)
same,GI50,[13],> 100 µM (inactive)
same,GI50,[14],> 100 µM (inactive)
same,GI50,[15],28.8 µM (inactive)
same,GI50,[16],> 100 µM (inactive)
same,GI50,[17],71.1 µM (inactive)
same,GI50,[18],> 100 µM (inactive)
same,GI50,[19],> 100 µM (inactive)
same,GI50,[20],> 100 µM (inactive)
same,GI50,[21],> 100 µM (inactive)
same,GI50,[22],> 100 µM (inactive)
same,GI50,[23],> 100 µM (inactive)
same,GI50,[24],> 100 µM (inactive)
same,GI50,[25],> 100 µM (inactive)
same,GI50,[26],> 100 µM (inactive)
same,GI50,[27],> 100 µM (inactive)
same,GI50,[28],> 100 µM (inactive)
same,GI50,[29],> 100 µM (inactive)
same,GI50,[30],> 100 µM (inactive)
same,GI50,[31],> 100 µM (inactive)
same,GI50,[32],> 100 µM (inactive)
same,GI50,[33],> 100 µM (inactive)
same,GI50,[34],> 100 µM (inactive)
same,GI50,[35],> 100 µM (inactive)
same,GI50,[36],> 100 µM (inactive)
same,GI50,[37],> 100 µM (inactive)
same,GI50,[38],> 100 µM (inactive)
same,GI50,[39],> 100 µM (inactive)
same,GI50,[40],> 100 µM (inactive)
same,GI50,[41],> 100 µM (inactive)
same,GI50,[42],> 100 µM (inactive)
same,GI50,[43],> 100 µM (inactive)
same,GI50,[44],> 100 µM (inactive)
same,GI50,[45],> 100 µM (inactive)
same,GI50,[46],> 100 µM (inactive)
same,GI50,[47],> 100 µM (inactive)
same,GI50,[48],> 100 µM (inactive)
same,GI50,[49],> 100 µM (inactive)
same,GI50,[50],> 100 µM (inactive)
same,GI50,[51],> 100 µM (inactive)
same,GI50,[52],32.5 µM (inactive)
same,GI50,[53],> 100 µM (inactive)
NC(=S)c1cccc(C2Nc3ccccc3O2)c1 (stereo unspecified),GI50,[1],> 100 µM (inactive)
same,GI50,[3],41.5 µM (inactive)
same,GI50,[4],40.2 µM (inactive)
same,GI50,[5],> 100 µM (inactive)
same,GI50,[6],> 100 µM (inactive)
same,GI50,[7],> 100 µM (inactive)
same,GI50,[8],0.019 µM (active)
same,GI50,[10],> 100 µM (inactive)
same,GI50,[11],21.9 µM
same,GI50,[54],12.1 µM (inactive)
same,GI50,[12],> 100 µM (inactive)
same,GI50,[13],> 100 µM (inactive)
same,GI50,[14],92.9 µM (inactive)
same,GI50,[15],> 100 µM (inactive)
same,GI50,[16],> 100 µM (inactive)
same,GI50,[55],30.5 µM (inactive)
same,GI50,[17],37.2 µM (inactive)
same,GI50,[19],> 100 µM (inactive)
same,GI50,[20],56.9 µM (inactive)
same,GI50,[21],6.25 µM (inactive)
same,GI50,[22],43 µM (inactive)
same,GI50,[23],41.7 µM (inactive)
same,GI50,[24],> 100 µM (inactive)
same,GI50,[25],12.1 µM (inactive)
same,GI50,[26],49.9 µM (inactive)
same,GI50,[27],49.2 µM (inactive)
same,GI50,[28],71.1 µM (inactive)
same,GI50,[29],43.9 µM (inactive)
same,GI50,[30],> 100 µM (inactive)
same,GI50,[31],31.5 µM (inactive)
same,GI50,[32],> 100 µM (inactive)
same,GI50,[33],> 100 µM (inactive)
same,GI50,[34],51.2 µM (inactive)
same,GI50,[35],< 0.01 µM (active)
same,GI50,[36],> 100 µM (inactive)
same,GI50,[37],> 100 µM (inactive)
same,GI50,[38],68.9 µM (inactive)
same,GI50,[39],61.1 µM (inactive)
same,GI50,[40],> 100 µM (inactive)
same,GI50,[41],> 100 µM (inactive)
same,GI50,[42],23.5 µM (inactive)
same,GI50,[43],> 100 µM (inactive)
same,GI50,[44],< 0.01 µM (active)
same,GI50,[45],> 100 µM (inactive)
same,GI50,[46],> 100 µM (inactive)
same,GI50,[56],> 100 µM (inactive)
same,GI50,[47],75.7 µM (inactive)
same,GI50,[48],46.7 µM (inactive)
same,GI50,[49],81.1 µM (inactive)
same,GI50,[50],> 100 µM (inactive)
same,GI50,[51],22.1 µM (inactive)
same,GI50,[52],19.5 µM (inactive)
same,GI50,[53],> 100 µM (inactive)
C[n+]1c(-c2ccc(/C=N/NC(=N)N/N=C/c3ccc(-c4cn5cc(Cl)ccc5[n+]4C)cc3)cc2)cn2cc(Cl)ccc21,GI50,[1],73.3 µM (inactive)
same,GI50,[3],> 100 µM (inactive)
same,GI50,[4],> 100 µM (inactive)
same,GI50,[57],> 100 µM (inactive)
same,GI50,[6],> 100 µM (inactive)
same,GI50,[8],> 100 µM (inactive)
same,GI50,[9],> 100 µM (inactive)
same,GI50,[10],> 100 µM (inactive)
same,GI50,[11],> 100 µM
same,GI50,[54],> 100 µM (inactive)
same,GI50,[12],> 100 µM (inactive)
same,GI50,[14],> 100 µM (inactive)
same,GI50,[15],> 100 µM (inactive)
same,GI50,[16],> 100 µM (inactive)
same,GI50,[55],> 100 µM (inactive)
same,GI50,[17],> 100 µM (inactive)
same,GI50,[19],> 100 µM (inactive)
same,GI50,[20],> 100 µM (inactive)
same,GI50,[21],> 100 µM (inactive)
same,GI50,[22],> 100 µM (inactive)
same,GI50,[23],> 100 µM (inactive)
same,GI50,[27],> 100 µM (inactive)
same,GI50,[28],> 100 µM (inactive)
same,GI50,[29],> 100 µM (inactive)
same,GI50,[31],> 100 µM (inactive)
same,GI50,[32],> 100 µM (inactive)
same,GI50,[33],> 100 µM (inactive)
same,GI50,[34],> 100 µM (inactive)
same,GI50,[35],> 100 µM (inactive)
same,GI50,[37],> 100 µM (inactive)
same,GI50,[38],> 100 µM (inactive)
same,GI50,[39],> 100 µM (inactive)
same,GI50,[40],> 100 µM (inactive)
same,GI50,[42],> 100 µM (inactive)
same,GI50,[43],> 100 µM (inactive)
same,GI50,[44],> 100 µM (inactive)
same,GI50,[45],> 100 µM (inactive)
same,GI50,[46],> 100 µM (inactive)
same,GI50,[56],> 100 µM (inactive)
same,GI50,[47],> 100 µM (inactive)
same,GI50,[48],> 100 µM (inactive)
same,GI50,[49],> 100 µM (inactive)
same,GI50,[50],> 100 µM (inactive)
same,GI50,[51],> 100 µM (inactive)
same,GI50,[53],69.8 µM (inactive)
